In ChEMBL document CHEMBL1154684, “Cytotoxicity of new n-butylamino and sulfur-containing derivatives of polyfluorinated 1,4-naphthoquinone” (Eur J Med Chem, 2010):
Values after ≈ are worked out from the molar mass of the structure shown. Active and inactive are the calls of the source. No cut-off for these calls is given here.

Legend:
[1] = test system: RPMI-8226; test: Cytotoxicity against human RPMI8226 at 25 ug/ml after 72 hrs by MTT assay; assay type: functional; settings: RPMI-8226, 72 h
[2] = test system: MCF7; test: Cytotoxicity against human MCF7 at 25 ug/ml after 72 hrs by MTT assay; assay type: functional, cell-based; settings: MCF7, 72 h
[3] = test system: Salmonella typhimurium; test: Antimutagenic activity in Salmonella Typhimurium TA102 assessed as inhibition of H2O2-induced mutagenesis at 0.05 to […] after 48 hrs by Ames test; assay type: functional, organism-based; settings: Salmonella enterica subsp. enterica serovar Typhimurium
[4] = test system: Salmonella typhimurium; test: Antimutagenic activity in Salmonella Typhimurium TA102 assessed as inhibition of H2O2-induced mutagenesis at 23.5 uM after 48 hrs by Ames test; assay type: functional, Salmonella enterica subsp. enterica serovar Typhimurium; settings: Salmonella enterica, TA102, 48 h
[5] = test system: Salmonella typhimurium; test: Antimutagenic activity in Salmonella Typhimurium TA102 assessed as inhibition of H2O2-induced mutagenesis at 26.9 uM after 48 hrs by Ames test; assay type: functional, organism-based, Salmonella enterica subsp. enterica serovar Typhimurium
[6] = test system: MCF7; test: Cytotoxicity against human MCF7 after 72 hrs by MTT assay; assay type: functional, cell-based
[7] = test system: RPMI-8226; test: Cytotoxicity against human RPMI8226 after 72 hrs by MTT assay; assay type: functional, cell-based
[8] = Cytotoxicity against mouse LMTK at 173 uM after 72 hrs by MTT assay

SMILES | inhibition at 25 µg/mL [1] | inhibition at 25 µg/mL [2] | Activity [3] | inhibition at 23.5 µM [4] | Inhibition [5] | IC50 [6] | IC50 [7] | IC50 [8]
CCCCNC1=C(F)C(=O)c2c(F)c(NCCCC)c(F)c(NCCCC)c2C1=O | 30% | 45% | Active | 55% | – | – | – | –
CCCCNC1=C(F)C(=O)c2c(F)c(NCCCC)c(F)c(F)c2C1=O | 17% | 10% | Active | – | 81% | – | – | –
CC1=C(SCCO)C(=O)c2c(F)c(F)c(F)c(F)c2C1=O | – | – | – | – | – | 173 µg/mL (≈ 540 µM) | 14.8 µg/mL (≈ 46.2 µM) | Not Active
